This note sets out measurements from US20240261440A1, “COMPOSITIONS, METHODS AND USES FOR TREATING CYSTIC FIBROSIS AND RELATED DISORDERS” (The Board of Regents of The University of Texas System, priority 0001, published 2024).

The test system of the experiment is C57BL/6 mice. Kind of experiment: In vivo Luc mRNA delivery (IVIS luminescence imaging). More on the design: species or system mouse. Conditions: 0.1 mg kg-1 Luc mRNA, i.v., 6h; 20% to 50% cationic lipid. On the procedure: C57BL/6 mice with weight at around 20 g were i.v. injected with various Luc mRNA formulations (0.1 mg kg^−1 of Luc mRNA, n=3 per group). After 6 hours, these mice were injected with D-Luciferin (150 mg kg^−1, intraperitoneal) and imaged immediately using an IVIS Lumina system (Perkin Elmer). Afterwards, these mice were killed, and tissues were excised for ex vivo imaging using IVIS Lumina system.

The structures appear in SMILES notation.

As for `CCCCCCCC/C=C\CCCCCCCC(=O)OCC(C[N+](C)(C)C)OC(=O)CCCCCCC/C=C\CCCCCCCC` (stereo not shown) [DOTAP, 1,2-dioleoyl-3-trimethylammonium-propane], the “luciferase expression in mouse lungs, permanently cationic lipid screen in mDLNP-2” value is “higher luminescence activity than others”.
